The values that follow come from paper PMC8041276 (ACS Chemical Neuroscience, 2021).

The target in data set [1] is T1, 5-HT6R (Homo sapiens, UniProt P50406). As to the kind of experiment: [3H]-LSD radioligand binding assay, HEK293 cells stably expressing human 5-HT6R. Also on record: expressed in transfected cells. To be noted: mean of three independent experiments. As to the method:
Final compounds were evaluated in the [^3H]-LSD binding assay using HEK293 cells with stable expression of human 5-HT6R. […] Because the fluorine atom might affect the affinity at target protein as well as physicochemical and pharmacokinetic properties of compound,[22] fluorine substitution at the 2-phenyl ring was applied. […] The analysis of the binding mode of 18 and 28 (Figure 2A) confirmed that the 2-phenyl moiety is placed in the hydrophobic cavity between transmembrane domains (TMs) 4–6.
All experiments were carried out according to the previously published procedures.[41]−[43] HEK293 cells stably expressing human 5-HT1A, 5-HT6, 5-HT7b, and D2L receptors (prepared with the use of Lipofectamine 2000) or CHO-K1 cells with plasmid containing the sequence coding for the human serotonin 5-HT2A receptor (PerkinElmer) were maintained at 37 °C in a humidified atmosphere containing 5% CO2 and grown in Dulbecco’s modified Eagle’s medium containing 10% dialyzed fetal bovine serum and 500 μg/mL G418 sulfate. For membrane preparation, cells were cultured in 150 cm^2 flasks, grown to 90% confluence, washed twice with prewarmed to 37 °C phosphate buffered saline (PBS), and centrifuged (200g) in PBS containing 0.1 mM EDTA and 1 mM dithiothreitol. Prior to membrane preparation, pellets were stored at −80 °C. Cell pellets were thawed and homogenized in 10 volumes of assay buffer using an Ultra Turrax tissue homogenizer and centrifuged twice at 35 000g for 15 min at 4 °C, with incubation for 15 min at 37 °C between the centrifugations. The composition of the assay buffers was experimentally selected to achieve the maximum signal window (more details in Supporting Information). All assays were carried out in a total volume of 200 μL in 96-well plates for 1 h at 37 °C except 5-HT1AR and 5-HT2AR which were incubated at room temperature and 27 °C, respectively. The process of equilibration was terminated by rapid filtration through Unifilter plates with a 96-well cell harvester, and radioactivity retained on the filters was quantified on a Microbeta plate reader (PerkinElmer, USA). For displacement studies the assay samples contained the following as radioligands (PerkinElmer, USA): 2.5 nM [^3H]-8-OH-DPAT (135.2 Ci/mmol) for 5-HT1AR; 1 nM [^3H]-ketanserin (53.4 Ci/mmol) for 5-HT2AR; 2 nM [^3H]-LSD (83.6 Ci/mmol) for 5-HT6R; 0.8 nM [^3H]-5-CT (39.2 Ci/mmol) for 5-HT7R or 2.5 nM [^3H]-raclopride (76.0 Ci/mmol) for D2LR. Nonspecific binding was defined in the presence of 10 μM 5-HT in 5-HT1AR and 5-HT7R binding experiments, whereas 20 μM mianserin, 10 μM methiothepine, and 10 μM haloperidol were used in 5-HT2AR, 5-HT6R, and D2LR assays, respectively. Each compound was tested in triplicate at seven concentrations (10^–10–10^–4 M). The inhibition constants (Ki) were calculated from the Cheng–Prusoff equation.[44]

A short description of data set [2]: Metabolic stability in rat liver microsomes. Type of data set: in vitro ADME. To be noted: male, pH 7.4, 10 μM compound, read-out: intrinsic clearance. The procedure:
Metabolic stability of compounds 27 and 28 was analyzed using incubation systems composed of tested compound (10 μM), rat liver microsomes (RLMs, microsomes from rat male liver, pooled; 0.4 mg/mL; Sigma-Aldrich), NADPH-regenerating system (NADP+, glucose-6-phosphate, and glucose-6-phosphate dehydrogenase in 100 mM potassium buffer, pH 7.4; all from Sigma-Aldrich) and potassium buffer, pH 7.4. […] First, all samples containing incubation mixture (without NADPH-regenerating system) were preincubated in thermoblock at 37 °C for 10 min. Then reaction was initiated by the addition of NADPH-regenerating system. In control samples NADPH-regenerating system was replaced with potassium buffer. Probes were incubated for 30 and 60 min at 37 °C. After addition of internal standard (pentoxifylline, 10 μM) biotransformation process was stopped by addition of perchloric acid. Next, samples were centrifuged and supernatants were analyzed using UPLC/MS (Waters Corporation, Milford, MA). All experiments were run in duplicates. Half-life time was evaluated using nonlinear regression model using GraphPad Prism software, and intrinsic clearance was calculated from the equation Clint = (volume of incubation [μL]/protein in the incubation [mg])0.693/t1/2.[46]

The target of data set [3] is T1, 5-HT6R. As to the kind of experiment: Inhibition of 5-CT-stimulated cAMP production in 1321N1 cells. Details: expressed in transfected cells. To be noted: antagonism of 5-CT (1000 nM)-stimulated cAMP. Format: cell-based. The procedure: The effect of compounds 18, 22, 27, and 28 on adenylate cyclase was examined in 1321N1 cells expressing the 5-HT6R.
The properties of compounds 18, 22, 27, 28 to inhibit cAMP production induced by 5-CT (1000 nM), a 5-HT6R agonist, were evaluated. Compounds were tested in triplicate at eight concentrations (10^–11–10^–4 M). The level of cAMP was measured using frozen recombinant 1321N1 cells expressing the human serotonin 5-HT6R (PerkinElmer). Total cAMP was measured using the LANCE cAMP detection kit (PerkinElmer), according to the manufacturer’s recommendations. For quantification of cAMP levels, 2000 cells/well (5 μL) were incubated with a mixture of compounds (5 μL) for 30 min at room temperature in 384-well white opaque microtiter plate. After incubation, the reaction was stopped and cells were lysed by the addition of 10 μL of working solution (5 μL of Eu-cAMP and 5 μL of ULight-anti-cAMP) for 1 h at room temperature. Time-resolved fluorescence resonance energy transfer (TR-FRET) was detected by an Infinite M1000 Pro (Tecan) using instrument settings from LANCE cAMP detection kit manual. Kb values were calculated from Cheng–Prusoff equation specific for the analysis of functional inhibition curves: Kb = IC50/(1 + A/EC50) where A represents agonist concentration, IC50 the concentration of antagonist producing a 50% reduction in the response to agonist, and EC50 the agonist concentration which causes a half of the maximal response.[44]

T1 sequence (P50406 whole entry, the tested form may be a part): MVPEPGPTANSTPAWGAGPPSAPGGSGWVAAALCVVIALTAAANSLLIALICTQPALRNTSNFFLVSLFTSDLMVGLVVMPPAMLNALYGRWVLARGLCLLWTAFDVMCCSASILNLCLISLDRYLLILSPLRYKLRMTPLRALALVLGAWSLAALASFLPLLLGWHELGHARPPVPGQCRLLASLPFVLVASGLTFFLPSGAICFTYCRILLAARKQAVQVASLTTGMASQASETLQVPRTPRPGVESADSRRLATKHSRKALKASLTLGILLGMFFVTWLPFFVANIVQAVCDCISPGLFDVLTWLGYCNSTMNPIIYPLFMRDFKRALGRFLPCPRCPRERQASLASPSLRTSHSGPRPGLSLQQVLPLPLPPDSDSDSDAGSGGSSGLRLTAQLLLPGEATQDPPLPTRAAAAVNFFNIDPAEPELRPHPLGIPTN

Consider `O=C(N[C@@H]1CCNC1)c1ccn(S(=O)(=O)c2cccc(Cl)c2)c1-c1ccc(F)cc1` [Compound 27, (R)-2-(4-Fluorophenyl)-1-[(3-chlorophenyl)sulfonyl]-N-(pyrrolidin-3-yl)-1H-pyrrole-3-carboxamide], for which the Ki at 5-HT6R [1] turned out to be 0.03 µM. Also, the microsomal CLint at 10 μM in data set [2] is 0.82 µL/min/mg. This molecule had a Kb on 5-HT6R [3] of 0.0114 µM.
The like results for `O=C(N[C@H]1CCNC1)c1ccn(S(=O)(=O)c2cccc(Cl)c2)c1-c1ccc(F)cc1` [Compound 28, (S)-2-(4-Fluorophenyl)-1-[(3-chlorophenyl)sulfonyl]-N-(pyrrolidin-3-yl)-1H-pyrrole-3-carboxamide] were, in that order, 0.022 µM, 1.03 µL/min/mg and 0.0076 µM.
